Some test systems named below: NCI-H460; SN12C; KM12; SK-OV-3; U-251; K562; RPMI-8226; MDA-MB-435; SF-268; HOP-92; HCT-116; PC-3; IGROV-1; SK-MEL-5; SW-620; OVCAR-3; M14; HCT-15; CAKI-1; SNB-75.
Test in all cases: DTP human tumour cell line panel, 48 h

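How tested: cells in 96-well plates exposed to compound for 48 hours at five concentrations. GI50 marks 50% less growth.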 The source made the active and inactive calls. Cut-off read from the data, not from the text of the source: active = GI50 up to about 1.1 µM and inactive = higher.

The term GI50 denotes the concentration that inhibits growth by half. As for `O=C1O/C(=C\c2ccc(O)cc2)C(c2ccc(O)c(Cl)c2)=C1Br`, the GI50 in the test on NCI-H460 was 12.8 µM (inactive); in the test with SN12C, 15.6 µM (inactive); in the test on KM12, 12.4 µM (inactive); in the test with SK-OV-3 it was 14 µM (inactive); with U-251 it was 18 µM (inactive); in the test on K562, 2.25 µM (inactive). Also, the GI50 in the test with RPMI-8226 was 10.6 µM (inactive); with MDA-MB-435, 15.7 µM (inactive); in the test with SF-268, 13.7 µM (inactive); with HOP-92, 12.9 µM (inactive); in the test with HCT-116, 11.5 µM (inactive); in the test on PC-3, 6.47 µM (inactive). Further, the GI50 was 12 µM (inactive) in the test on IGROV-1; 12.7 µM (inactive) in the test on SK-MEL-5; 15.9 µM (inactive) with SW-620; 7 µM (inactive) with OVCAR-3; 13.6 µM (inactive) in the test on M14; 12.9 µM in the test on HCT-15. Moreover, the GI50 in the test with CAKI-1 was 15.4 µM (inactive).
In the case of `CN(C)CN1C(=O)/C(=N\n2c(S)nnc2-c2ccncc2)c2ccccc21`, the GI50 was 38.3 µM (inactive) with NCI-H460; 35.2 µM (inactive) in the test on SN12C; 43.7 µM (inactive) in the test on KM12; 31.7 µM (inactive) with SK-OV-3; 38.8 µM (inactive) in the test on U-251; 26.5 µM (inactive) in the test with K562. Further, the GI50 was 15.8 µM (inactive) with MDA-MB-435; 57.5 µM (inactive) with SF-268; 76.9 µM (inactive) in the test on HOP-92; 34 µM (inactive) in the test on HCT-116; 35.6 µM (inactive) in the test on PC-3; 38.5 µM (inactive) in the test on IGROV-1. Further, the GI50 with SK-MEL-5 is 39.4 µM (inactive); in the test on SW-620, 18.8 µM (inactive); with OVCAR-3 it was 66.5 µM (inactive); with SNB-75 it was 38.5 µM (inactive); in the test with M14, 24.8 µM (inactive); in the test with HCT-15, 28.1 µM. Further, the GI50 in the test with CAKI-1 is 69.3 µM (inactive).
Consider `CC(C)(C)OC(=O)NC(Cc1ccccc1)C(=O)N[C@H]1c2ccsc2/C(=N/O)[C@H]1O` (stereo not given in full), for which the GI50 in the test on NCI-H460, in the test on SN12C, in the test with SK-OV-3, in the test with U-251, in the test with K562 and in the test with MDA-MB-435 was > 100 µM (inactive) throughout. In addition, the GI50 with HOP-92, in the test with HCT-116, in the test with PC-3, in the test with IGROV-1, in the test with SK-MEL-5 and with SW-620 was > 100 µM (inactive) each time. In addition, the GI50 in the test on OVCAR-3 is > 100 µM (inactive); in the test with M14 it was > 100 µM (inactive); with HCT-15, over 100 µM; with CAKI-1, > 100 µM (inactive).
Turning to `O=C(CCC(=O)OCC1OC(O)(CC2OC(CO)C(O)C(O)C2O)C(O)C1O)OCc1ccccc1` (stereo not given), the GI50 in the test on NCI-H460, in the test on SN12C, in the test with KM12, with SK-OV-3, in the test on U-251 and in the test with K562 was > 100 µM (inactive) in each case. Also, the GI50 in the test with MDA-MB-435, in the test with SF-268, with HOP-92, with HCT-116, with PC-3 and in the test on IGROV-1 was > 100 µM (inactive) in each case. Also, the GI50 with SK-MEL-5 is > 100 µM (inactive); in the test with SW-620, > 100 µM (inactive); in the test on OVCAR-3, > 100 µM (inactive); with SNB-75 it was > 100 µM (inactive); in the test with M14, > 100 µM (inactive); in the test with HCT-15, over 100 µM. Besides, the GI50 with CAKI-1 was > 100 µM (inactive).
`CC1CCC2C(C(=O)O[C@H]3C4CCO[C@@H](OC5OC(CO)C(O)C(O)C5O)C4[C@@]4(CO)O[C@@H]34)=CO[C@@H](OC3OC(CO)C(O)C(O)C3O)C12` (stereo not given in full): the GI50 in the test with NCI-H460, in the test with SN12C, in the test with KM12, in the test with SK-OV-3, in the test on U-251 and in the test on K562 was > 10 µM (inactive) in each case. The GI50 with RPMI-8226, in the test on MDA-MB-435, in the test with SF-268, with HOP-92, in the test with HCT-116 and in the test with PC-3 was > 10 µM (inactive) in each case. The GI50 in the test on IGROV-1, in the test on SK-MEL-5, with SW-620, with OVCAR-3, in the test on SNB-75 and with M14 was > 10 µM (inactive) each time. In addition, the GI50 in the test on HCT-15 was over 10 µM.
Regarding `Cc1ccc(/C=C2\Cc3c(C)cc(C)cc3C2=O)c(C(=O)O)c1`, the GI50 with NCI-H460 was 48.2 µM (inactive); with SN12C, 67.5 µM (inactive); in the test with KM12, 46.3 µM (inactive); in the test with U-251 it was 29.9 µM (inactive); in the test on K562, 54.7 µM (inactive); in the test on RPMI-8226, 19.3 µM (inactive). Moreover, the GI50 was 31.6 µM (inactive) with MDA-MB-435; 40.5 µM (inactive) in the test with SF-268; 36.1 µM (inactive) in the test on HOP-92; 49.4 µM (inactive) with HCT-116; 41.9 µM (inactive) in the test on PC-3; 79.8 µM (inactive) in the test with IGROV-1. The GI50 with SK-MEL-5 is 25.8 µM (inactive); in the test with SW-620, 47.4 µM (inactive); in the test on OVCAR-3, 31 µM (inactive); in the test with SNB-75, 58.9 µM (inactive); in the test on M14 it was > 100 µM (inactive); in the test with HCT-15, 36.3 µM. In the test with CAKI-1, the GI50 was > 100 µM (inactive).
Consider `O=C1OC(=O)c2c1cc1cc3c(cc1c2-c1ccc2c(c1)OCO2)OCO3`, for which the GI50 in the test with NCI-H460, in the test on SN12C, with KM12, with U-251, with K562 and in the test with RPMI-8226 was > 100 µM (inactive) in each case. Further, the GI50 in the test on MDA-MB-435, in the test with SF-268, with HOP-92, in the test on HCT-116, in the test on PC-3 and in the test with IGROV-1 was > 100 µM (inactive) throughout. In addition, the GI50 is > 100 µM (inactive) in the test on SK-MEL-5; > 100 µM (inactive) in the test with SW-620; > 100 µM (inactive) in the test with OVCAR-3; > 100 µM (inactive) in the test on SNB-75; > 100 µM (inactive) in the test with M14; over 100 µM in the test with HCT-15. In addition, the GI50 in the test on CAKI-1 is > 100 µM (inactive).
For the compound `CC(C)C(=O)Nc1cc(C(F)(F)F)ccc1[N+](=O)[O-]`, the GI50 with NCI-H460 is 72.6 µM (inactive); in the test on SN12C it was > 100 µM (inactive); in the test on KM12, > 100 µM (inactive); with SK-OV-3, > 100 µM (inactive); in the test on U-251 it was > 100 µM (inactive); in the test with K562, 50.9 µM (inactive). Also, the GI50 is 72.8 µM (inactive) with RPMI-8226; > 100 µM (inactive) in the test on MDA-MB-435; > 100 µM (inactive) in the test with SF-268; > 100 µM (inactive) in the test with HOP-92; > 100 µM (inactive) in the test on HCT-116; > 100 µM (inactive) in the test on PC-3. Besides, the GI50 in the test on IGROV-1 is > 100 µM (inactive); with SK-MEL-5 it was > 100 µM (inactive); with SW-620 it was > 100 µM (inactive); in the test with OVCAR-3, > 100 µM (inactive); with M14, > 100 µM (inactive); in the test with HCT-15 it was over 100 µM. Moreover, the GI50 in the test on CAKI-1 was > 100 µM (inactive).
In the case of `CC(=O)c1cc2sc3ccccc3c2[nH]1`, the GI50 in the test with NCI-H460, in the test with SN12C, in the test with KM12, in the test with SK-OV-3, with U-251 and in the test with K562 was > 100 µM (inactive) in each case. Moreover, the GI50 was 16.3 µM (inactive) with RPMI-8226; > 100 µM (inactive) in the test with MDA-MB-435; > 100 µM (inactive) with SF-268; > 100 µM (inactive) in the test on HOP-92; > 100 µM (inactive) in the test on HCT-116; > 100 µM (inactive) in the test on PC-3. Also, the GI50 with SK-MEL-5 is > 100 µM (inactive); in the test on SW-620 it was > 100 µM (inactive); with OVCAR-3, > 100 µM (inactive); with M14 it was > 100 µM (inactive); in the test with HCT-15, over 100 µM; with CAKI-1, > 100 µM (inactive).
On to `Cc1cc(C)c(S(=O)(=O)N(CCCCCCN)OCCCN)c(C)c1`, for which the GI50 is 15.6 µM (inactive) in the test on NCI-H460; 19.6 µM (inactive) in the test on SN12C; 15.1 µM (inactive) in the test with KM12; 18.4 µM (inactive) with SK-OV-3; 16.2 µM (inactive) with U-251; 26.4 µM (inactive) in the test on K562. For the same compound, the GI50 in the test on RPMI-8226 is 31.6 µM (inactive); in the test on MDA-MB-435 it was 62.1 µM (inactive); in the test with SF-268 it was 16.5 µM (inactive); in the test with HOP-92, 15.7 µM (inactive); in the test with HCT-116, 17.5 µM (inactive); in the test on PC-3, 14.6 µM (inactive). In addition, the GI50 in the test on IGROV-1 is 13.9 µM (inactive); in the test on SK-MEL-5, 19.2 µM (inactive); in the test with SW-620, 17.9 µM (inactive); in the test with OVCAR-3 it was 19.9 µM (inactive); in the test on SNB-75, 10.3 µM (inactive); in the test on M14, 20.9 µM (inactive). In addition, it took 17.7 µM to inhibit growth in the test with HCT-15 by half (GI50).
With `CCOc1cc(C=O)ccc1O` [ETHYL VANILLIN], the GI50 in the test with NCI-H460, in the test on SN12C, with KM12, in the test with U-251, with K562 and in the test with RPMI-8226 was > 100 µM (inactive) throughout. Further, the GI50 with MDA-MB-435, in the test on SF-268, with HOP-92, with HCT-116, in the test with PC-3 and in the test with IGROV-1 was > 100 µM (inactive) throughout. For the same compound, the GI50 in the test on SK-MEL-5 was > 100 µM (inactive); in the test on SW-620 it was > 100 µM (inactive); in the test with OVCAR-3, > 100 µM (inactive); with SNB-75, 95.1 µM (inactive); in the test on M14, > 100 µM (inactive); in the test on HCT-15 it was over 100 µM. The GI50 in the test with CAKI-1 was > 100 µM (inactive).
